Data published in patent US20210137126A1, “USE OF PEPTIDES AS IN[…]” (INSTITUT NATIONAL DES SCIENCES APPLIQUEES DE LYON, priority 2018, published 2021).

System: pea aphid Acyrthosiphon pisum
Assay: Insecticide test: ingestion of the peptide in artificial medium by pea aphid larvae, mortality monitored over 7 days
Type: in vivo
Settings: for TL50 (lethal time at which mortality of individuals is 50%): survival analysis, normal logarithmic adjustment
Experimental: The experiments were carried out on aphids from the parthenogenetic clone of the pea aphid LL01 which contained only the primary symbiont B. aphidicola. The aphids were bred and kept on feva bean plants (Vicia faba L., Aquadulce variety) under climate-controlled conditions (temperature 21±1° C., relative humidity 70%, photoperiod of 16 h), in order to obtain aphids which reproduced solely by viviparous parthenogenesis. In order to reduce the variability linked to the use of individuals at different stages of development, the aphids were obtained from a synchronized brood. For this, adult aphids that were ready to lay were placed on feva bean plants. […] The manipulation was carried out with a negative control composed solely of artificial medium and a positive control representing one of the concentrations of the range being studied with the aphids. The range being studied comprised different media containing the BCR4 peptide studied at various concentrations which varied from 5 to 80 μM. The experiments were carried out on thirty larvae per condition divided into three distinct groups of ten individuals.
All of the data regarding the mortality of the aphids were analyzed statistically by standard survival processing. All of the BCR4 concentrations were analyzed separately in a parametric survival analysis with a normal logarithmic adjustment.
The measurement of the insecticidal activity of BCR4 was carried out by incorporating increasing doses of peptides into the nutrient medium for the aphids and monitoring of their mortality was carried out over 7 days.

DFDPTEFKGPFPTIEICSKYCAVVCNYTSRPCYCVEAAKERDQWFPYCYD (listed as Acyrthosiphon pisum) [BCR4, Bacteriocyte Cysteine Rich peptide of Acyrthosiphon pisum]
TL50 (lethal time at which mortality of individuals is 50%) (BCR4 concentration 5 μM in artificial medium): >20 days | TL50 (lethal time at which mortality of individuals is 50%) (BCR4 concentration 10 μM in artificial medium): 11.3 days | TL50 (lethal time at which mortality of individuals is 50%) (BCR4 concentration 20 μM in artificial medium): 3.48 days | TL50 (lethal time at which mortality of individuals is 50%) (BCR4 concentration 27.5 μM in artificial medium): 3.24 days | TL50 (lethal time at which mortality of individuals is 50%) (BCR4 concentration 35 μM in artificial medium): 1.94 days | TL50 (lethal time at which mortality of individuals is 50%) (BCR4 concentration 40 μM in artificial medium): 1.76 days | TL50 (lethal time at which mortality of individuals is 50%) (BCR4 concentration 80 μM in artificial medium): 1.16 days | mortality at onset of the dose-response effect (from the first day following ingestion): high mortality | dose-response over the survival time for the aphids (increasing doses 5 to 80 μM, mortality monitored over 7 days): very significant dose-response | range of activity (insecticidal) (pea aphid, peptide in nutrient medium): 5 to 80 µM
